Measured values as given in patent US7119075B2, “Use of herbal agents for potentiation of bioefficacy of anti infectives” (priority 2003, dated 2006).

What was measured:
Assay in all cases: Inhibitory effect of bioenhancers alone
Format in all cases: cell-based
Bacillus cereus RRL 02 = details: Bacillus cereus, RRL02
[1] = tested on: Escherichia coli ATCC 25922; details: Escherichia coli, ATCC25922
[2] = tested on: Klebsiella pneumoniae ATCC 75388; details: Klebsiella pneumoniae, ATCC75388
[3] = tested on: Staphylococcus hemolyticus ATCC 29978; details: Staphylococcus, ATCC29978
Salmonella typhi AIIMS 2 = details: Salmonella enterica, TYPHI, read-out: inhibitory effect
[4] = tested on: Mycobacterium avium ATCC 49601; details: Mycobacterium avium, ATCC49601
[5] = tested on: Mycobacterium intracelluare ATCC 13950; details: Mycobacterium, ATCC13950
[6] = tested on: Staphylococcus epidermidis ATCC 12228; details: Staphylococcus epidermidis, ATCC12228
Candida krusei ATCC 6258 = details: Pichia kudriavzevii, ATCC6258
[7] = tested on: Mycobacterium tuberculosis H37Rv; details: Mycobacterium tuberculosis, H37RV, read-out: inhibitory effect
[8] = tested on: Staphylococcus aureus ATCC 29313; details: Staphylococcus aureus, ATCC29313
[9] = tested on: Methicillin Resistant Staphylococcus aureus (MRSA); details: Staphylococcus aureus, MRSA
[10] = tested on: Mycobacterium tuberculosis 615; details: Mycobacterium tuberculosis, 615
[11] = tested on: Aspergillus fumigatus SI-1; details: Aspergillus fumigatus, SI1
[12] = tested on: Pseudomonas aeruginosa ATCC 27583; details: Pseudomonas aeruginosa, ATCC27583
[13] = tested on: Candida tropicalis ATCC 750; details: Candida tropicalis, ATCC750
[14] = tested on: Aspergillus flavus MTCC 1973; details: Aspergillus flavus, MTCC1973

O=C(/C=C/C=C/c1ccc2c(c1)OCO2)N1CCCCC1 [piperine]
0%: inhibition at 0.2 µg/mL (Bacillus cereus RRL 02; conc. 0.2 μg/ml) | inhibition at 0.8 µg/mL (Bacillus cereus RRL 02; conc. 0.8 μg/ml) | inhibition at 3.12 µg/mL (Bacillus cereus RRL 02; conc. 3.12 μg/ml) | inhibition at 12.5 µg/mL (Bacillus cereus RRL 02; conc. 12.5 μg/ml) | inhibition at 50 µg/mL (Bacillus cereus RRL 02; conc. 50 μg/ml) | inhibition at 100 µg/mL (Bacillus cereus RRL 02; conc. 100 μg/ml) | inhibition at 0.2 µg/mL ([1]; conc. 0.2 μg/ml) | inhibition at 0.8 µg/mL ([1]; conc. 0.8 μg/ml) | inhibition at 3.12 µg/mL ([1]; conc. 3.12 μg/ml) | inhibition at 12.5 µg/mL ([1]; conc. 12.5 μg/ml) | inhibition at 50 µg/mL ([1]; conc. 50 μg/ml) | inhibition at 100 µg/mL ([1]; conc. 100 μg/ml) | inhibition at 0.2 µg/mL ([2]; conc. 0.2 μg/ml) | inhibition at 0.8 µg/mL ([2]; conc. 0.8 μg/ml) | inhibition at 3.12 µg/mL ([2]; conc. 3.12 μg/ml) | inhibition at 12.5 µg/mL ([2]; conc. 12.5 μg/ml) | inhibition at 50 µg/mL ([2]; conc. 50 μg/ml) | inhibition at 100 µg/mL ([2]; conc. 100 μg/ml) | inhibition at 0.2 µg/mL ([3]; conc. 0.2 μg/ml) | inhibition at 0.8 µg/mL ([3]; conc. 0.8 μg/ml) | inhibition at 3.12 µg/mL ([3]; conc. 3.12 μg/ml) | inhibition at 12.5 µg/mL ([3]; conc. 12.5 μg/ml) | inhibition at 0.2 µg/mL (Salmonella typhi AIIMS 2) | inhibition at 0.8 µg/mL (Salmonella typhi AIIMS 2) | inhibition at 3.12 µg/mL (Salmonella typhi AIIMS 2) | inhibition at 12.5 µg/mL (Salmonella typhi AIIMS 2) | inhibition at 50 µg/mL (Salmonella typhi AIIMS 2) | inhibition at 100 µg/mL (Salmonella typhi AIIMS 2) | inhibition at 0.2 µg/mL ([4]; conc. 0.2 μg/ml) | inhibition at 0.8 µg/mL ([4]; conc. 0.8 μg/ml) | inhibition at 3.12 µg/mL ([4]; conc. 3.12 μg/ml) | inhibition at 12.5 µg/mL ([4]; conc. 12.5 μg/ml) | inhibition at 50 µg/mL ([4]; conc. 50 μg/ml) | inhibition at 100 µg/mL ([4]; conc. 100 μg/ml) | inhibition at 0.2 µg/mL ([5]; conc. 0.2 μg/ml) | inhibition at 0.8 µg/mL ([5]; conc. 0.8 μg/ml) | inhibition at 3.12 µg/mL ([5]; conc. 3.12 μg/ml) | inhibition at 12.5 µg/mL ([5]; conc. 12.5 μg/ml) | inhibition at 50 µg/mL ([5]; conc. 50 μg/ml) | inhibition at 100 µg/mL ([5]; conc. 100 μg/ml) | inhibition at 0.2 µg/mL ([6]; conc. 0.2 μg/ml) | inhibition at 0.8 µg/mL ([6]; conc. 0.8 μg/ml) | inhibition at 3.12 µg/mL ([6]; conc. 3.12 μg/ml) | inhibition at 12.5 µg/mL ([6]; conc. 12.5 μg/ml) | inhibition at 0.2 µg/mL (Candida krusei ATCC 6258; conc. 0.2 μg/ml) | inhibition at 0.8 µg/mL (Candida krusei ATCC 6258; conc. 0.8 μg/ml) | inhibition at 3.12 µg/mL (Candida krusei ATCC 6258; conc. 3.12 μg/ml) | inhibition at 12.5 µg/mL (Candida krusei ATCC 6258; conc. 12.5 μg/ml) | inhibition at 50 µg/mL (Candida krusei ATCC 6258; conc. 50 μg/ml) | inhibition at 0.2 µg/mL [7] | inhibition at 0.8 µg/mL [7] | inhibition at 3.12 µg/mL [7] | inhibition at 12.5 µg/mL [7] | inhibition at 50 µg/mL [7] | inhibition at 100 µg/mL [7] | inhibition at 0.2 µg/mL ([8]; conc. 0.2 μg/ml) | inhibition at 0.8 µg/mL ([8]; conc. 0.8 μg/ml) | inhibition at 3.12 µg/mL ([8]; conc. 3.12 μg/ml) | inhibition at 12.5 µg/mL ([8]; conc. 12.5 μg/ml) | inhibition at 50 µg/mL ([8]; conc. 50 μg/ml) | inhibition at 0.2 µg/mL ([9]; conc. 0.2 μg/ml) | inhibition at 0.8 µg/mL ([9]; conc. 0.8 μg/ml) | inhibition at 3.12 µg/mL ([9]; conc. 3.12 μg/ml) | inhibition at 12.5 µg/mL ([9]; conc. 12.5 μg/ml) | inhibition at 50 µg/mL ([9]; conc. 50 μg/ml) | inhibition at 0.2 µg/mL ([10]; conc. 0.2 μg/ml) | inhibition at 0.8 µg/mL ([10]; conc. 0.8 μg/ml) | inhibition at 3.12 µg/mL ([10]; conc. 3.12 μg/ml) | inhibition at 12.5 µg/mL ([10]; conc. 12.5 μg/ml) | inhibition at 50 µg/mL ([10]; conc. 50 μg/ml) | inhibition at 100 µg/mL ([10]; conc. 100 μg/ml) | inhibition at 0.2 µg/mL ([11]; conc. 0.2 μg/ml) | inhibition at 0.8 µg/mL ([11]; conc. 0.8 μg/ml) | inhibition at 3.12 µg/mL ([11]; conc. 3.12 μg/ml) | inhibition at 12.5 µg/mL ([11]; conc. 12.5 μg/ml) | inhibition at 0.2 µg/mL ([12]; conc. 0.2 μg/ml) | inhibition at 0.8 µg/mL ([12]; conc. 0.8 μg/ml) | inhibition at 3.12 µg/mL ([12]; conc. 3.12 μg/ml) | inhibition at 12.5 µg/mL ([12]; conc. 12.5 μg/ml) | inhibition at 50 µg/mL ([12]; conc. 50 μg/ml) | inhibition at 100 µg/mL ([12]; conc. 100 μg/ml) | inhibition at 0.2 µg/mL ([13]; conc. 0.2 μg/ml) | inhibition at 0.8 µg/mL ([13]; conc. 0.8 μg/ml) | inhibition at 3.12 µg/mL ([13]; conc. 3.12 μg/ml) | inhibition at 12.5 µg/mL ([13]; conc. 12.5 μg/ml) | inhibition at 50 µg/mL ([13]; conc. 50 μg/ml) | inhibition at 0.2 µg/mL ([14]; conc. 0.2 μg/ml) | inhibition at 0.8 µg/mL ([14]; conc. 0.8 μg/ml) | inhibition at 3.12 µg/mL ([14]; conc. 3.12 μg/ml) | inhibition at 12.5 µg/mL ([14]; conc. 12.5 μg/ml)
20%: inhibition at 50 µg/mL ([3]; conc. 50 μg/ml) | inhibition at 50 µg/mL ([6]; conc. 50 μg/ml) | inhibition at 100 µg/mL (Candida krusei ATCC 6258; conc. 100 μg/ml) | inhibition at 100 µg/mL ([8]; conc. 100 μg/ml) | inhibition at 100 µg/mL ([9]; conc. 100 μg/ml) | inhibition at 50 µg/mL ([11]; conc. 50 μg/ml) | inhibition at 100 µg/mL ([13]; conc. 100 μg/ml) | inhibition at 50 µg/mL ([14]; conc. 50 μg/ml)
50%: inhibition at 100 µg/mL ([3]; conc. 100 μg/ml) | inhibition at 100 µg/mL ([6]; conc. 100 μg/ml) | inhibition at 100 µg/mL ([11]; conc. 100 μg/ml) | inhibition at 100 µg/mL ([14]; conc. 100 μg/ml)
